Source: patent US10124065B2, “Lipids and lipid compositions for the delivery of active agents” (Novartis AG, priority 2013, dated 2018)
Values joined by “and” are separate entries in the source; they are usually repeats but may differ in a detail not shown here. Equal values may be shown once.

Tests used:
[1] = test system: respiratory syncytial virus F protein; assay: Immunization studies, anti-RSV-F titers; type: in vivo; settings: anti-RSV-F titer, BALB/c, liposomes with 0.1 μg vA317 replicon (naked: 1 μg); for 4wp2 pool 1 / 4wp2 pool 2: 4 weeks after second dose; for 2wp1 pool 1 / 2wp1 pool 2: 2 weeks after first dose; for 2wp2 pool 1 / 2wp2 pool 2: 2 weeks after second dose
Experimental: BALB/c were immunized with liposomes comprising DSPC, cholesterol, and various lipids of the invention (or, for comparison, the cationic lipid 1,2-dilinoleyloxy-N,N-dimethyl-3-aminopropane or ‘DLinDMA’). The liposomes encapsulated 0.1 μg of “vA317” self-replicating RNA replicon which encodes respiratory syncytial virus F protein (see WO2012/031043). […] Doses were given either on days 0 & 21 or days 0 & 42. Immune responses were assessed 2 weeks after each dose (2wp1, 2wp2), and in some cases also at 4 weeks after the second dose (4wp2).

[2] = test system: plasma Factor VII enzyme activity; assay: Mouse Factor VII dosing / Factor VII Activity Assay; type: in vivo; settings: percent knock down of plasma Factor VII activity, CD-1 mice, 48 h; for KD FVII 0.03 mg/kg: single IV dose 0.03 mg/kg; for KD FVII 0.3 mg/kg: single IV dose 0.3 mg/kg
Experimental: Female CD-1 mice were received from Harlan Labs and maintained on standard lab chow and water ad libitum. The animals weighed approximately 25 grams at time of dosing. Formulated Factor VII siRNA was administered as a single dose intravenously via the lateral tail vein. Approximately 48 hours after injection, the mice were euthanized by CO2 inhalation followed by exsanguination through the vena cava. […] Plasma collected from injected mice was assayed for Factor VII enzyme activity using the Biophen FVII kit from Hyphen Biomedical (catalog number 221304). An assay standard curve was prepared using pooled plasma aliquots from the vehicle control animals. All samples were diluted to fall within the linear range of the standard curve and Factor VII activity relative to control plasma was reported. Lipid nanoparticles comprising lipid compounds of formula (I) and the FVII siRNA duplex sequence listed above were tested in the Factor VII Activity Assay. The results of this assay are given in Table 4 below as a percent knock down of plasma Factor VII enzyme activity at a dose of 0.3 mg/kg and 0.03 mg/kg.

[3] = LNP Chol/DSPC/PEG-DMG 45/44/9/2

| Compound | 4wp2 pool 1 ([1]; course A = days 0 & 21) | 4wp2 pool 2 ([1]; course A = days 0 & 21) | 2wp1 pool 1 ([1]; course A = days 0 & 21) | 2wp1 pool 2 ([1]; course A = days 0 & 21) | 2wp2 pool 1 ([1]; course A = days 0 & 21) | 2wp2 pool 2 ([1]; course A = days 0 & 21) | further results |
| --- | --- | --- | --- | --- | --- | --- | --- |
| CCCCC/C=C\C/C=C\CCCCCCCCOCC(CN(C)C)OCCCCCCCC/C=C\C/C=C\CCCCC (stereo not drawn) [DLinDMA, 1,2-dilinoleyloxy-N,N-dimethyl-3-aminopropane, reference compound] | 26504 and 50799 | 28008 and 35992 |  |  |  |  | 2wp1 pool 1 ([1]; course B = days 0 & 42): 13; 2wp1 pool 2 ([1]; course B = days 0 & 42): 4; 2wp2 pool 1 ([1]; course B = days 0 & 42): 18290; 2wp2 pool 2 ([1]; course B = days 0 & 42): 5538; 4wp2 pool 1 ([1]; course B = days 0 & 42): 13936; 4wp2 pool 2 ([1]; course B = days 0 & 42): 7020 |
| CCCCCCCC(=O)OCCCCCCCCCCOc1cc(CN(CC)CC)cc(OCCCCCCCCCCOC(=O)CCCCCCC)c1OCCCCCCCCCCOC(=O)CCCCCCC [Ex. 100, ((5-((diethylamino)methyl)benzene-1,2,3-triyl)tris(oxy))tris(decane-10,1-diyl)trioctanoate] |  |  |  |  |  |  | KD FVII 0.03 mg/kg ([2]; LNP Chol/DSPC/S010 45/44/9/2): 26.9%; KD FVII 0.3 mg/kg [2, 3]: 94.0% |
| CCCCC/C=C\C/C=C\CCCCCCCC(=O)OCCCCOc1cc(CN2CCCC2)cc(OCCCCOC(=O)CCCCCCC/C=C\C/C=C\CCCCC)c1 [Ex. 112, (9Z,9′Z,12Z,12′Z)-((5-(pyrrolidin-1-ylmethyl)-1,3-phenylene)bis(oxy))bis(butane-4,1-diyl)bis(octadeca-9,12-dienoate)] |  |  |  |  |  |  | KD FVII 0.03 mg/kg [2, 3]: 86% |
| CCCCCCCC/C=C\CCCCCCCCOc1cc(OCCCCCCCC/C=C\CCCCCCCC)cc(C2OCC(CN3CCCC3)O2)c1 (stereo not drawn) [Example 9, 1-((2-(3,5-bis((Z)-octadec-9-en-1-yloxy)phenyl)-1,3-dioxolan-4-yl)methyl)pyrrolidine] |  |  | 1832 | 1352 | 29707 | 18788 |  |
| CCCCCCCC/C=C\CCCCCCCCOc1cc(OCCCCCCCC/C=C\CCCCCCCC)cc(C2OCC(COC(=O)CN(C)C)O2)c1 (stereo not drawn) [Example 12, (2-(3,5-bis((Z)-octadec-9-en-1-yloxy)phenyl)-1,3-dioxolan-4-yl)methyl 2-(dimethylamino)acetate] |  |  |  |  |  |  | 2wp1 pool 1 ([1]; course B = days 0 & 42): 88; 2wp1 pool 2 ([1]; course B = days 0 & 42): 128; 2wp2 pool 1 ([1]; course B = days 0 & 42): 4550; 2wp2 pool 2 ([1]; course B = days 0 & 42): 4828; 4wp2 pool 1 ([1]; course B = days 0 & 42): 4787; 4wp2 pool 2 ([1]; course B = days 0 & 42): 3972 |
| CCCCC/C=C\C/C=C\CCCCCCCCOc1cc(COC(=O)CCCN(C)C)cc(OCCCCCCCC/C=C\C/C=C\CCCCC)c1 [Example 13, 3,5-bis((9Z,12Z)-octadeca-9,12-dien-1-yloxy)benzyl 4-(dimethylamino)butanoate] |  |  | 495 | 620 | 7157 | 12316 |  |
| CCCCC/C=C\C/C=C\CCCCCCCCOc1cc(C(=O)OCCCN(C)C)cc(OCCCCCCCC/C=C\C/C=C\CCCCC)n1 [Example 25, 3-(dimethylamino)propyl 2,6-bis((9Z,12Z)-octadeca-9,12-dien-1-yloxy)isonicotinate] | 2850 | 1767 | 1217 | 1883 | 1611 | 1156 |  |
| CCCCC/C=C\C/C=C\CCCCCCCC(=O)OCc1cc(COC(=O)CCCCCCC/C=C\C/C=C\CCCCC)cc(COC(=O)CCN(C)C)c1 [Example 29, (9Z,9′Z,12Z,12′Z)-(5-(((3-(dimethylamino)propanoyl)oxy)methyl)-1,3-phenylene)bis(methylene)bis(octadeca-9,12-dienoate)] | 23930 | 37278 | 2101 | 3584 | 12529 | 18669 |  |
| CCCCCCCCCCCCC(=O)OCc1cc(COC(=O)CCCCCCCCCCCC)cc(CN(C)C)c1 [Example 34, (5-((dimethylamino)methyl)-1,3-phenylene)bis(methylene)ditridecanoate] |  |  |  |  |  |  | KD FVII 0.3 mg/kg [2, 3]: 0% |
| CCCCC/C=C\C/C=C\CCCCCCCC(=O)OCCOc1cc(CN(C)C)cc(OCCOC(=O)CCCCCCC/C=C\C/C=C\CCCCC)c1 [Example 40, (9Z,9′Z, 12Z, 12′Z)-((5-((dimethylamino)methyl)-1,3-phenylene)bis(oxy))bis(ethane-2,1-diyl)bis(octadeca-9,12-dienoate)] |  |  |  |  |  |  | KD FVII 0.03 mg/kg ([2]; LNP Chol/DSPC/S010 45/44/9/2): 8.2%; KD FVII 0.3 mg/kg [2, 3]: 89.8% |
| CCCCCCCCCC(=O)OCCCCCCOc1cc(CN(C)C)cc(OCCCCCCOC(=O)CCCCCCCCC)c1 [Example 47, ((5-((dimethylamino)methyl)-1,3-phenylene)bis(oxy))bis(hexane-6,1-diyl)bis(decanoate)] |  |  |  |  |  |  | KD FVII 0.3 mg/kg [2, 3]: 99% |
| CCCCC/C=C\C/C=C\CCCCCCCC(=O)OCCCCOc1cc(CN(CC)CC)cc(OCCCCOC(=O)CCCCCCC/C=C\C/C=C\CCCCC)c1C [Example 55, (9Z,9′Z,12Z,12′Z)-((5-((diethylamino)methyl)-2-methyl-1,3-phenylene)bis(oxy))bis(butane-4,1-diyl)bis(octadeca-9,12-dienoate)] |  |  |  |  |  |  | KD FVII 0.3 mg/kg [2, 3]: 98.0% |
| CCCCCCCC/C=C\CCCCCCCC(=O)OCCCCOc1cc(CN(C)C)cc(OCCCCOC(=O)CCCCCCC/C=C\CCCCCCCC)c1 [Example 60, (Z)-((5-((dimethylamino)methyl)-1,3-phenylene)bis(oxy))bis(butane-4,1-diyl)dioleate] |  |  |  |  |  |  | KD FVII 0.03 mg/kg ([2]; LNP Chol/DSPC/S010 45/44/9/2): 49.75% |
| CCCCCCCCCCCCCC(=O)OCCCCOc1cc(CN(C)C)cc(OCCCCOC(=O)CCCCCCCCCCCCC)c1 [Example 61, ((5-((dimethylamino)methyl)-1,3-phenylene)bis(oxy))bis(butane-4,1-diyl)ditetradecanoate] |  |  |  |  |  |  | KD FVII 0.03 mg/kg ([2]; LNP Chol/DSPC/S010 45/44/9/2): 0% |
| CC/C=C\C/C=C\C/C=C\CCCCCCCC(=O)OCCCCOc1cc(CN(C)C)cc(OCCCCOC(=O)CCCCCCC/C=C\C/C=C\C/C=C\CC)c1 [Example 62, (9Z,9′Z,12Z,12′Z,15Z,15′Z)-((5-((dimethylamino)methyl)-1,3-phenylene)bis(oxy))bis(butane-4,1-diyl)bis(octadeca-9,12,15-trienoate)] |  |  |  |  |  |  | KD FVII 0.03 mg/kg ([2]; LNP Chol/DSPC/S010 45/44/9/2): 85.8% |
| CCCCC/C=C\C/C=C\CCCCCCCCNC(=O)c1cc(COC(=O)CCCN(C)C)cc(C(=O)NCCCCCCCC/C=C\C/C=C\CCCCC)c1 [Example 66, 3,5-bis((9Z,12Z)-octadeca-9,12-dien-1-ylcarbamoyl)benzyl 4-(dimethylamino)butanoate] | 75 | 75 | 75 | 75 | 75 | 75 |  |
| CCCCC/C=C\C/C=C\CCCCCCCCOc1cc(COC(=O)OCCCN(C)C)cc(OCCCCCCCC/C=C\C/C=C\CCCCC)c1 [Example 68, 3,5-bis((9Z,12Z)-octadeca-9,12-dien-1-yloxy)benzyl (3-(dimethylamino)propyl) carbonate] | 12963 | 17734 | 1031 | 494 | 11315 | 7800 |  |
| CCCCC/C=C\C/C=C\CCCCCCCC(=O)OCc1cc(COC(=O)CCCCCCC/C=C\C/C=C\CCCCC)cc(COC(=O)OCCCN(CC)CC)c1 [Example 69, (9Z,9′Z,12Z,12′Z)-(5-((((3-(diethylamino)propoxy)carbonyl)oxy)methyl)-1,3-phenylene)bis(methylene)bis(octadeca-9,12-dienoate)] | 19075 | 21504 | 2853 | 4481 | 23851 | 20793 |  |
| CCCCC/C=C\C/C=C\CCCCCCCC(=O)OCc1cc(COC(=O)CCCCCCC/C=C\C/C=C\CCCCC)cc(COC(=O)OCCN(C)C)c1 [Example 70, (9Z,9′Z,12Z,12′Z)-(5-((((2-(dimethylamino)ethoxy)carbonyl)oxy)methyl)-1,3-phenylene)bis(methylene)bis(octadeca-9,12-dienoate)] | 18779 | 18358 | 1416 | 3110 | 31550 | 20124 |  |
| CCCCC/C=C\C/C=C\CCCCCCCCOc1cc(CCCOC(=O)CCN(C)C)cc(OCCCCCCCC/C=C\C/C=C\CCCCC)c1 [Example 81, 3-(3,5-bis((9Z,12Z)-octadeca-9,12-dien-1-yloxy)phenyl)propyl 3-(dimethylamino)propanoate] | 41921 | 34684 | 1779 | 1553 | 24648 | 15304 |  |
